Seven compounds from PubChem BioAssay (NCI) can be followed below.

Molecules are shown by their SMILES.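 Compound exposure: 48 hours, 5 concentrations, 96-well plates. Abbreviation: GI50, concentration required for 50% inhibition of growth. Definition used: TGI = concentration required for complete inhibition of growth.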 A value given as a limit tells only on which side of the number the result lay.

Some test systems named below: NCI-H23 lung; SW-620 colon; A549 NSCLC; HCC-2998 colon; HL-60(TB) leukemia; OVCAR-8 ovarian; UACC-62 melanoma; A498 renal; MCF7 breast; SNB-19 CNS.
Assay in all cases: DTP human tumour cell line panel, 48 h

With `COc1cc(OCc2cccc(-c3ccccc3)c2C)cc(OC)c1CN1CCCCC1C(=O)NCCOCCOCCN` (stereo unspecified), the GI50 in the test on NCI-H23 lung was 5.22 µM; in the test on SW-620 colon, 1.9 µM; in the test on A549 NSCLC it was 3.04 µM; in the test with HCC-2998 colon it was 2.39 µM; in the test with HL-60(TB) leukemia, 1.91 µM; with OVCAR-8 ovarian it was 3.26 µM. The GI50 with UACC-62 melanoma was 1.79 µM; with A498 renal, 2.27 µM; in the test on MCF7 breast, 1.92 µM; in the test on SNB-19 CNS, 2.95 µM. In addition, the TGI with NCI-H23 lung came to 19.2 µM; in the test on SW-620 colon, 3.87 µM; in the test on A549 NSCLC, 10.7 µM; in the test with HCC-2998 colon, 5.85 µM; in the test on HL-60(TB) leukemia it was 4.07 µM; in the test on OVCAR-8 ovarian, 12.1 µM. Moreover, the TGI with UACC-62 melanoma was determined as 3.41 µM; with A498 renal it was 11.8 µM; in the test with MCF7 breast, 3.92 µM; in the test on SNB-19 CNS, 10.6 µM.
Consider `COc1ccc2c(c1)CN([C@@H](C)[C@H]1CC[C@H]3[C@@H]4CC[C@H]5C[C@@H](O)CC[C@]5(C)[C@H]4CC[C@]13C)CO2`, for which the TGI was 5.12 µM in the test on NCI-H23 lung; more than 23.6 µM in the test with SW-620 colon; 4.51 µM in the test on A549 NSCLC; 3.01 µM with HCC-2998 colon; 5.91 µM in the test on HL-60(TB) leukemia; more than 24.1 µM in the test on OVCAR-8 ovarian. Moreover, the TGI with UACC-62 melanoma stood at 3.88 µM; in the test with A498 renal, 3.45 µM; in the test with MCF7 breast, 11.8 µM; in the test with SNB-19 CNS it was 4.1 µM.
For `CCOC(=O)c1ccc(NC(=O)NC2=NCCS2)cc1`, the GI50 is 3.61 µM with NCI-H23 lung; 22.9 µM with SW-620 colon; 0.584 µM in the test on A549 NSCLC; 3.91 µM in the test on HCC-2998 colon; 0.503 µM in the test with HL-60(TB) leukemia; 1.98 µM in the test on OVCAR-8 ovarian. Further, the GI50 in the test on UACC-62 melanoma was 7.96 µM; with A498 renal it was 0.34 µM; in the test with MCF7 breast it was 0.517 µM; in the test with SNB-19 CNS, 2.86 µM. Besides, the TGI with NCI-H23 lung is more than 100 µM; with SW-620 colon it was more than 100 µM; in the test with A549 NSCLC, more than 100 µM; in the test with HCC-2998 colon, more than 76.7 µM; with HL-60(TB) leukemia it was more than 100 µM; in the test on OVCAR-8 ovarian, more than 100 µM. For the same compound, the TGI in the test with UACC-62 melanoma is more than 100 µM; in the test on A498 renal, 2.24 µM; in the test with MCF7 breast it was more than 100 µM; in the test with SNB-19 CNS, more than 100 µM.
Take `CCCN(CCC)c1ccc(C=O)c(Cl)c1`: the GI50 with NCI-H23 lung is 25.6 µM; with SW-620 colon, 20.9 µM; in the test on A549 NSCLC, 7.66 µM; in the test on HCC-2998 colon, 19.4 µM; in the test on HL-60(TB) leukemia, 27.8 µM; with OVCAR-8 ovarian, 28.4 µM. Also, the GI50 in the test with UACC-62 melanoma was 0.317 µM; with A498 renal, 0.141 µM; in the test on MCF7 breast, 1.8 µM; with SNB-19 CNS, 25.8 µM. Also, the TGI in the test on NCI-H23 lung is more than 100 µM; in the test with SW-620 colon, more than 100 µM; in the test on A549 NSCLC it was more than 100 µM; in the test on HCC-2998 colon it was more than 100 µM; in the test with HL-60(TB) leukemia it was 76.1 µM; in the test with OVCAR-8 ovarian, more than 100 µM. Also, the TGI in the test on UACC-62 melanoma is 1.81 µM; in the test with A498 renal, 0.289 µM; with MCF7 breast, 29.4 µM; in the test on SNB-19 CNS, more than 100 µM.
For the compound `CCCc1nc(Cl)nc(Cl)c1Cl`, the TGI was found to be 2.04 µM with NCI-H23 lung; 2.17 µM with SW-620 colon; 6.59 µM in the test with A549 NSCLC; 4.57 µM in the test with HCC-2998 colon; 0.359 µM in the test with HL-60(TB) leukemia; 0.637 µM with OVCAR-8 ovarian. Also, the TGI with UACC-62 melanoma was 2.07 µM; in the test with A498 renal, 7.53 µM; with MCF7 breast, 1.52 µM; in the test with SNB-19 CNS it was 2.57 µM.
On to `Nc1nc(N)c2cc(Sc3ccc4ccccc4c3)ccc2n1`, for which the TGI in the test with NCI-H23 lung turned out to be 10.2 µM; in the test with SW-620 colon, 1.91 µM; in the test on A549 NSCLC, 12 µM; in the test on HCC-2998 colon, 2.13 µM; with HL-60(TB) leukemia, 2.77 µM; in the test with OVCAR-8 ovarian, 2.84 µM. Besides, the TGI came out at 6.09 µM with UACC-62 melanoma, 17.4 µM in the test on A498 renal, 2.86 µM in the test on MCF7 breast and 7.61 µM with SNB-19 CNS. Further, the GI50 in the test with HCC-2998 colon was 0.878 µM.
Take `Nc1c(C(=O)c2cccc(C#CCN3CCCCC3)c2)cnn1-c1ccc(F)cc1`: the GI50 with NCI-H23 lung is more than 22.5 µM; with SW-620 colon it was more than 25 µM; in the test with A549 NSCLC, more than 25 µM; in the test with HCC-2998 colon, more than 25 µM; in the test with HL-60(TB) leukemia, 15.9 µM; with OVCAR-8 ovarian, more than 25 µM. Besides, the GI50 in the test on UACC-62 melanoma was more than 25 µM; with A498 renal, more than 25 µM; with MCF7 breast it was 19.1 µM; with SNB-19 CNS it was more than 25 µM. Further, the TGI in the test on NCI-H23 lung, with SW-620 colon, in the test on A549 NSCLC, with HCC-2998 colon, with HL-60(TB) leukemia and with OVCAR-8 ovarian was more than 25 µM in each case. Further, the TGI in the test with UACC-62 melanoma, with A498 renal, in the test on MCF7 breast and in the test on SNB-19 CNS was more than 25 µM each time.
